Measured values reported in patent publication US4271170A, “Pyridine derivatives” (Ono Pharmaceutical Co., Ltd.,, priority 1978, dated 1981).
Counter-ions that a name gives are not always drawn. Like-named read-outs stand apart in the source and are kept apart here.

Assays:
[1] = test system: thromboxane synthetase; settings: prior-art compounds, literature reports as judged by the applicant; cited from earlier work
[2] = molecular target: T1, thromboxane synthetase from rabbit platelet microsomes (Oryctolagus cuniculus, UniProt G1TAZ9); test: inhibition of thromboxane synthetase from rabbit platelet microsomes (conversion of prostaglandin H2 into thromboxane B2); assay type: biochemical
T1 construct: thromboxane synthetase from rabbit platelet microsomes; from tissue; host or cells: rabbit platelet microsomes
T1 sequence (G1TAZ9 1-530): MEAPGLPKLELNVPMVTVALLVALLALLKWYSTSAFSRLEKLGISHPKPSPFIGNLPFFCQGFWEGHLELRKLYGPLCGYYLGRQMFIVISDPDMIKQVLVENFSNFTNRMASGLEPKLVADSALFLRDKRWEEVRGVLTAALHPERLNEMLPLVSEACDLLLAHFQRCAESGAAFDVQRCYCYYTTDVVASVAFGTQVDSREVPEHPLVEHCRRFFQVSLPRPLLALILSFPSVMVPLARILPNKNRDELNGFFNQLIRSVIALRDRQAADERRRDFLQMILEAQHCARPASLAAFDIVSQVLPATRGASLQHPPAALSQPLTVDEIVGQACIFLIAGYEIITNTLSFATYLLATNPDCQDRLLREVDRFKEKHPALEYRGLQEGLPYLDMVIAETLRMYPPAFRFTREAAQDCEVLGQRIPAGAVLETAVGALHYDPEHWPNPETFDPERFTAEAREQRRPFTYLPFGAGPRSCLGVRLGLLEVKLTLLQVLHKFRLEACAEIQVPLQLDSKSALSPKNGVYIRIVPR

[3] = rabbit platelet microsomes, one common range stated for all listed compounds, read-out: molar concentration producing a 50% inhibition of thromboxane synthetase

IC50 [2, 3] [nM]	Compound	also measured
–	CC(Cc1ccc(O)c(O)c1)C(C)Cc1ccc(O)c(O)c1 (centres unmarked) [nordihydroguaiaretic acid]	inhibitory activity on thromboxane synthetase [1]: very weak
3 to 650	O=C(O)CCc1ccc(Cc2cccnc2)cc1 [3-[4-(3-Pyridylmethyl)phenyl]propionic acid hydrochloride]	–
3 to 650	C/C(=C\c1ccc(Cc2cccnc2)cc1)C(=O)O [(E)-2-Methyl-3-[4-(3-pyridylmethyl)pehnyl]acrylic acid hydrochloride]	–
3 to 650	O=C(O)/C=C/c1ccc(Cc2cccnc2)s1 [(E)-5-(3-Pyridylmethyl)-2-(2-carboxyvinyl)thiophene hydrochloride]	–
3 to 650	Oc1ccc(Cc2cccnc2)cc1 [4-(3-pyridylmethyl)phenol hydrochloride, 4-(3-Pyridylmethyl)phenol hydrochloride]	–
3 to 650	C/C(=C\c1cccc(Cc2cccnc2)c1)C(=O)O [(E)-2-Methyl-3-[3-(3-pyridylmethyl)phenyl]acrylic acid hydrochloride]	–
3 to 650	CC(Cc1ccc(C(C)c2cccnc2)cc1)C(=O)O (centres unmarked) [2-Methyl-3-[4-(1-3'-pyridylethyl)phenyl]propionic acid hydrochloride]	–
3 to 650	CC/C(=C\c1ccc(Cc2cccnc2)cc1)C(=O)O [(E)-2-Ethyl-3-[4-(3-pyridylmethyl)phenyl]acrylic acid hydrochloride]	–
3 to 650	C/C(=C\c1ccc(Cc2cccnc2)cc1)C(=O)OCc1ccccc1 [(E)-2-Methyl-3-[4-(3-pyridylmethyl)phenyl]acrylic acid benzyl ester]	–
–	CCOC(=O)C(C)Oc1ccc(Cc2cccnc2)cc1 (centres unmarked) [2-[4-(3-Pyridylmethyl)phenoxy]propionic acid ethyl ester]	IC50 [2]: 3 to 650 nM
3 to 650	O=C(O)COc1ccc(Cc2cccnc2)cc1 [2-[4-(3-Pyridylmethyl)phenoxy]acetic acid hydrochloride]	–
3 to 650	CC(C)(Cc1ccc(Cc2cccnc2)cc1)C(=O)O [2,2-Dimethyl-3-[4-(3-pyridylmethyl)phenyl]propionic acid hydrochloride]	–
–	CCCCCC(O)C=CC1C2CC(N=N2)C1CC=CCCCC(=O)O (centres unmarked) [9,11-azo-15-hydroxyprosta-5,13-dienoic acid]	inhibitory activity on thromboxane synthetase [1]: very weak
3 to 650	O=C(O)/C=C/c1ccc(C(O)c2cccnc2)cc1 (centres unmarked) [(E)-3-[4-(3-Pyridylhydroxymethyl)phenyl]acrylic acid hydrochloride]	–
3 to 650	CCOC(=O)/C(C)=C/c1ccc(Cc2cccnc2)c(C)c1 [(E)-2-Methyl-3-[3-Methyl-4-(3-pyridylmethyl)phenyl]acrylic acid ethyl ester]	–
3 to 650	CC(Oc1ccc(Cc2cccnc2)cc1)C(=O)O (centres unmarked) [2-[4-(3Pyridylmethyl)phenoxy]propionic acid hydrochloride]	–
3 to 650	C/C(=C\c1ccc(Cc2cccnc2)cc1)C(=O)Oc1cccc(C(F)(F)F)c1 [(E)-2-Methyl-3-[4-(3-pyridylmethyl)phenyl]acrylic acid 3-trifluoromethylphenyl ester]	–
3 to 650	Cc1cc(/C=C/C(=O)O)ccc1Cc1cccnc1 [(E)-3-[3-Methyl-4-(3-pyridylmethyl)phenyl]acrylic acid hydrochloride]	–
–	sodium p-benzyl-4-[1-oxo-2-(4-chlorobenzyl)-3-phenylpropyl]phenylphosphonate [Example N-0164]	inhibitory activity on thromboxane synthetase [1]: very weak
3 to 650	CCOC(=O)C(C)Cc1ccc(Cc2cccnc2)cc1 (centres unmarked) [2-Methyl-3-[4-(3-pyridylmethyl)phenyl]propionic acid ethyl ester]	–
–	CCCCCCCCC1C2COC(C2)C1CCCCCCC(=O)O (centres unmarked) [9,11-epoxymethanoprostanoic acid]	inhibitory activity on thromboxane synthetase [1]: very weak
3 to 650	CCSC(=O)/C(C)=C/c1ccc(Cc2cccnc2)cc1 [(E)-2-Methyl-3-[4-(3-pyridylmethyl)phenyl]thioacrylic S-acid S-ethyl ester hydrochloride]	–
3 to 650	CCOC(=O)COc1ccc(Cc2cccnc2)cc1 [4-(3-Pyridylmethyl)phenoxyacetic acid ethyl ester]	–

IC50 [2, 3] [nM]	Compound	also measured
3 to 650	CC(C)(Oc1ccc(Cc2cccnc2)cc1)C(=O)O [2-Methyl-2-[4-(3-pyridylmethyl)phenoxy]propionic acid hydrochloride]	–
3 to 650	CC(CC(=O)O)c1ccc(Cc2cccnc2)cc1 (centres unmarked) [3-[4-(3-Pyridylmethyl)phenyl]butyric acid hydrochloride]	–
–	CCCCCC(O)C=CC1C2COC(C2)C1CC=CCCCC(=O)O (centres unmarked) [9,11-epoxymethano-15-hydroxyprosta-5,13-dienoic acid]	inhibitory activity on thromboxane synthetase [1]: very weak
3 to 650	C/C(=C\c1ccc(Cc2cccnc2)cc1)C(=O)Oc1ccccc1 [(E)-2-Methyl-3-[4-(3-pyridylmethyl)phenyl]acrylic acid phenyl ester]	–
3 to 650	CC(Cc1ccc(Cc2cccnc2)cc1)C(=O)O (centres unmarked) [2-Methyl-3-[4-(3-pyridylmethyl)phenyl]propionic acid hydrochloride]	–
3 to 650	C/C(=C\c1ccc(C(C)c2cccnc2)cc1)C(=O)O (centres unmarked) [(E)-2-Methyl-3-[4-(1-3'-pyridylethyl)phenyl]acrylic acid hydrochloride]	–
3 to 650	C/C(=C\C(=O)O)c1ccc(Cc2cccnc2)cc1 [(E)-3-[4-(3-Pyridylmethyl)phenyl]-2-butenoic acid hydrochloride]	–
3 to 650	C/C(=C\c1ccc(Cc2cccnc2)s1)C(=O)O [(E)-5-(3-Pyridylmethyl)-2-(2-carboxy-1-propenyl(thiophene hydrochloride]	–
3 to 650	CCOC(=O)/C(C)=C/c1cccc(Cc2cccnc2)c1 [(E)-2-Methyl-3-[3-(3-pyridylmethyl)phenyl]acrylic acid ethyl ester]	–
3 to 650	O=C(O)Cc1ccc(Cc2cccnc2)cc1 [4-(3-Pyridylmethyl)phenylacetic acid hydrochloride]	–
–	CCCCCC=CC[C@@H](C=CC=CCC=CCCCC(=O)O)OO [HPETE, 12L-hydroperoxy-5,8,10,14-eicosatetraenoic acid]	inhibitory activity on thromboxane synthetase [1]: very weak
3 to 650	CC(C)(Sc1ccc(Cc2cccnc2)cc1)C(=O)O [2-Methyl-2-[4-(3-pyridylmethyl)phenylthio]propionic acid hydrochloride]	–
3 to 650	C/C(=C\c1ccc(Cc2cnccc2C)cc1)C(=O)O [(E)-2-Methyl-3-[4-(4-methyl-3-pyridylmethyl)phenyl]acrylic acid hydrochloride]	–
3 to 650	O=C(O)/C(Br)=C/c1ccc(Cc2cccnc2)cc1 [(2)-2-Bromo-3-[4-(3-pyuridylemthyl)phenyl]acrylic acid hydrochloride]	–
3 to 650	COC(=O)/C(Br)=C/c1ccc(Cc2cccnc2)cc1 [(Z)-2-Bromo-3-[4-(3-pyridylmethyl)phenyl]acrylic acid methyl ester]	–
–	c1c[nH]cn1 [imidazole]	inhibitory activity on thromboxane synthetase [1]: very weak
3 to 650	O=C(O)/C=C/c1ccc(Cc2cccnc2)cc1 [(E)-3-[4-(3-Pyridylmethyl)phenyl]acrylic acid hydrochloride]	–
3 to 650	O=C(O)c1ccc(Cc2cccnc2)cc1 [4-(3-Pyridylmethyl)benzoic acid hydrochloride]	–
–	Cn1ccnc1 [1-methylimidazole]	inhibitory activity on thromboxane synthetase [1]: very weak
–	CC(C)c1[nH]c2ccccc2c1C(=O)c1cccnc1 [Example L-8027, 2-isopropyl-3-nicotinylindole]	inhibitory activity on thromboxane synthetase [1]: very weak
3 to 650	C/C(=C\c1ccc(Cc2cccnc2)cc1)C(=O)Oc1ccccc1C [(E)-2-Methyl-3-[4-(3-pyridylmethyl)phenyl]acrylic acid 2-methylphenyl ester]	–
3 to 650	C/C(=C\c1ccc(Cc2cccnc2)c(C)c1)C(=O)O [(E)-2-Methyl-3-[3-methyl-4-(3-pyridylmethyl)phenyl]acrylic acid hydrochloride]	–
3 to 650	CCOC(=O)CCc1ccc(Cc2cccnc2)cc1 [3-[4-(3-Pyridylmethyl)phenyl]propionic acid ethyl ester]	–

Compound	IC50 [2, 3] [nM]	also measured
C/C(=C\c1ccc(Cc2cccnc2)cc1)C(=O)OCc1ccc(-c2ccccc2)cc1 [(E)-2-Methyl-3-[4-(3-pyridylmethyl)phenyl]acrylic acid biphenylmethyl ester]	3 to 650	–
